# Reference: PubChem BioAssay AID344 (DTP/NCI, 2004)
# Toxic doses and inconclusive results are not listed.
# Tested on: mice, LPC-1 plasma cell tumor ip, median survival T/C
# Experiment: NCI In Vivo Anticancer Drug Screen. Data for tumor model Lieberman Plasma Cell No. 1 (LPC-1) (intraperitoneal) in unknown mice
# Conditions: endpoint: median survival time, higher = longer survival
# Experimental: The antitumor activity of compounds was measured in mice bearing transplantable tumors. Survival or tumor size were measured and the results are expressed as the measurement made in the treated group (T) divided by the measurement made in the vehicle treated control group (C). The tumor model used in this assay is Lieberman Plasma Cell No. 1 (LPC-1) (intraperitoneal) in unknown mice
structure (smiles),measurement,setting,value
O=c1[nH]cc(F)c(=O)[nH]1,T/C,"dose: 2.0 mg/kg/injection, schedule: Q01DX028 (sc), vehicle: saline",122 % of control
same,T/C,"dose: 3.0 mg/kg/injection, schedule: Q01DX024 (sc), vehicle: saline",109 % of control
same,T/C,"dose: 4.0 mg/kg/injection, schedule: Q01DX028 (sc), vehicle: saline",155 % of control
same,T/C,"dose: 5.8 mg/kg/injection, schedule: Q01DX001 (sc), vehicle: saline",105 % of control
same,T/C,"dose: 5.8 mg/kg/injection, schedule: Q01DX002 (sc), vehicle: saline",100 % of control
same,T/C,"dose: 5.8 mg/kg/injection, schedule: Q01DX003 (sc), vehicle: saline",112 % of control
same,T/C,"dose: 5.8 mg/kg/injection, schedule: Q01DX004 (sc), vehicle: saline",110 % of control
same,T/C,"dose: 6.0 mg/kg/injection, schedule: Q01DX024 (sc), vehicle: saline",121 % of control
same,T/C,"dose: 6.0 mg/kg/injection, schedule: Q## X008 (sc), vehicle: saline",104 % of control
same,T/C,"dose: 6.0 mg/kg/injection, schedule: Q## X012 (sc), vehicle: saline",114 % of control
same,T/C,"dose: 8.0 mg/kg/injection, schedule: Q01DX028 (sc), vehicle: saline",251 % of control
same,T/C,"dose: 9.6 mg/kg/injection, schedule: Q01DX001 (sc), vehicle: saline",110 % of control
same,T/C,"dose: 9.6 mg/kg/injection, schedule: Q01DX002 (sc), vehicle: saline",112 % of control
same,T/C,"dose: 9.6 mg/kg/injection, schedule: Q01DX003 (sc), vehicle: saline",120 % of control
same,T/C,"dose: 9.6 mg/kg/injection, schedule: Q01DX004 (sc), vehicle: saline",112 % of control
same,T/C,"dose: 12.0 mg/kg/injection, schedule: Q01DX024 (sc), vehicle: saline",214 % of control
same,T/C,"dose: 12.0 mg/kg/injection, schedule: Q## X008 (sc), vehicle: saline",117 % of control
same,T/C,"dose: 12.0 mg/kg/injection, schedule: Q## X012 (sc), vehicle: saline",117 % of control
same,T/C,"dose: 16.0 mg/kg/injection, schedule: Q01DX001 (sc), vehicle: saline",115 % of control
same,T/C,"dose: 16.0 mg/kg/injection, schedule: Q01DX002 (sc), vehicle: saline",117 % of control
same,T/C,"dose: 16.0 mg/kg/injection, schedule: Q01DX028 (sc), vehicle: saline",155 % of control
same,T/C,"dose: 24.0 mg/kg/injection, schedule: Q## X012 (sc), vehicle: saline",156 % of control
same,T/C,"dose: 26.7 mg/kg/injection, schedule: Q01DX001 (sc), vehicle: saline",120 % of control
same,T/C,"dose: 26.7 mg/kg/injection, schedule: Q01DX002 (sc), vehicle: saline",122 % of control
same,T/C,"dose: 26.7 mg/kg/injection, schedule: Q01DX004 (sc), vehicle: saline",157 % of control
same,T/C,"dose: 32.0 mg/kg/injection, schedule: Q01DX028 (sc), vehicle: saline",93 % of control
same,T/C,"dose: 44.5 mg/kg/injection, schedule: Q01DX003 (sc), vehicle: saline",107 % of control
same,T/C,"dose: 44.5 mg/kg/injection, schedule: Q01DX004 (sc), vehicle: saline",120 % of control
same,T/C,"dose: 48.0 mg/kg/injection, schedule: Q01DX024 (sc), vehicle: saline",102 % of control
same,T/C,"dose: 96.0 mg/kg/injection, schedule: Q## X008 (sc), vehicle: saline",95 % of control
same,T/C,"dose: 96.0 mg/kg/injection, schedule: Q## X012 (sc), vehicle: saline",90 % of control
Nc1cc2ncccc2c2ncccc12,T/C,"dose: 37.5 mg/kg/injection, schedule: Q01DX028 (sc), vehicle: steriod suspending solution",104 % of control
same,T/C,"dose: 75.0 mg/kg/injection, schedule: Q01DX028 (sc), vehicle: steriod suspending solution",104 % of control
same,T/C,"dose: 150.0 mg/kg/injection, schedule: Q01DX028 (sc), vehicle: steriod suspending solution",112 % of control
CN(C)c1ccc(/C=C/c2ccnc3ccccc23)cc1,T/C,"dose: 2.0 mg/kg/injection, schedule: Q01DX028 (sc), vehicle: carboxymethylcellulose (CMC)",95 % of control
same,T/C,"dose: 4.0 mg/kg/injection, schedule: Q01DX028 (sc), vehicle: carboxymethylcellulose (CMC)",100 % of control
same,T/C,"dose: 8.0 mg/kg/injection, schedule: Q01DX028 (sc), vehicle: carboxymethylcellulose (CMC)",95 % of control
same,T/C,"dose: 16.0 mg/kg/injection, schedule: Q01DX028 (sc), vehicle: carboxymethylcellulose (CMC)",92 % of control
same,T/C,"dose: 23.0 mg/kg/injection, schedule: Q01DX028 (sc), vehicle: carboxymethylcellulose (CMC)",105 % of control
same,T/C,"dose: 32.0 mg/kg/injection, schedule: Q01DX028 (sc), vehicle: carboxymethylcellulose (CMC)",100 % of control
same,T/C,"dose: 39.0 mg/kg/injection, schedule: Q01DX028 (sc), vehicle: carboxymethylcellulose (CMC)",97 % of control
same,T/C,"dose: 65.0 mg/kg/injection, schedule: Q01DX028 (sc), vehicle: carboxymethylcellulose (CMC)",100 % of control
same,T/C,"dose: 108.0 mg/kg/injection, schedule: Q01DX028 (sc), vehicle: carboxymethylcellulose (CMC)",95 % of control
same,T/C,"dose: 180.0 mg/kg/injection, schedule: Q01DX028 (sc), vehicle: carboxymethylcellulose (CMC)",95 % of control
NC(CSC(c1ccccc1)(c1ccccc1)c1ccccc1)C(=O)O (configuration not stated),T/C,"dose: 7.5 mg/kg/injection, schedule: Q01DX028 (sc), vehicle: saline",102 % of control
same,T/C,"dose: 15.0 mg/kg/injection, schedule: Q01DX028 (sc), vehicle: saline",105 % of control
same,T/C,"dose: 60.0 mg/kg/injection, schedule: Q01DX028 (sc), vehicle: saline",105 % of control
